{"source": "patent US8507550B2", "about": "“Treatment for altitudinal hypoxia” (AesRx LLC, priority 2010, dated 2013)", "key": {"[1]": {"tested_on": "human subject", "experiment": "hypoxia induced by moderate exercise at elevated altitude in a human subject", "type": "in vivo", "conditions": "3,000 meters altitude, at rest 3 hours and after one hour bike; dosage giving P50 of 18 mm Hg; day 2 (treated) vs day 1", "method": "A 90 kg person in good health is transported from low elevation (<100 meters above sea level) to an altitude of 3,000 meters above sea level and kept at rest there for 3 hours. At that point, the subject is tested for respiration rate, heart rate and extremity O2. The subject is then put on a stationary exercise bike and allowed to ride the bike at a cadence of 40 rpm for one hour. The subject is again tested for respiration rate, heart rate and extremity O2. Then the subject is transported back to low elevation. […] The subject is kept at rest there for 3 hours, then tested for respiration rate, heart rate and extremity O2. The subject is then put on a stationary exercise bike and allowed to ride the bike at a cadence of 40 rpm for one hour. The subject is again tested for respiration rate, heart rate and extremity O2. The data from the two days are then compared."}, "[2]": {"tested_on": "rats", "conditions": "females; cited from earlier work"}, "[3]": {"tested_on": "sickle cell disease mouse model", "conditions": "Abdulmalik 2004; cited from earlier work"}, "[4]": {"tested_on": "SCD Hb", "conditions": "sickle cell disease mouse model; Abdulmalik 2004; cited from earlier work"}}}
{"smiles": "O=Cc1ccc(CO)o1", "note": "[5-HMF, 5-hydroxymethyl-2-furfural]", "values": [{"measurement": "respiration rate, heart rate and extremity O2", "setting": "[1]", "value": "closer to normal on day 2 than on day 1"}, {"measurement": "acute oral LD50", "setting": "[2]", "value": "2500 to 5000", "unit": "mg/kg"}, {"measurement": "in vivo protection against the lethal effects of hypoxia", "setting": "[3]", "value": "provides in vivo protection against the lethal effects of hypoxia"}, {"measurement": "P50 of SCD Hb", "setting": "[4]", "value": "lower P50 (left shift)"}]}
